The values below come from patent US8778974B2, “Trisubstituted 1,2,4 triazoles” (Janssen Pharmaceutica NV, priority 2008, dated 2014).

In data set [1] the target is T1, hα7-wt nAChR-expressing cells (Homo sapiens, UniProt P36544).
T1 construct: expressed in transfected cells; host or cells: hα7-wt nAChR-expressing cells
The experiment in a line: Ca2+ flux imaging (FDSS) (Protocol B), PAM activity with choline 100 μM. The data set is classed as cell-based. As to conditions: according to Ex. D.1b; read-out: % Efficacy. The procedure:
Ca^2+ Flux Imaging (FDSS) (Protocol B)
• a) Assay buffer • Hanks buffered saline solution (HBSS, Invitrogen, Belgium), supplemented with 10 mM HEPES (Invitrogen, Belgium), CaCl2 to a final concentration of 5 mM, 0.1% Bovine serum albumin (Sigma-Aldrich NV, Belgium). • b) Calcium-sensitive dye—Fluo-4AM • Fluo-4AM (Molecular Probes, USA) was dissolved in DMSO containing 10% Pluronic acid (Molecular Probes, USA) to give a stock solution which was diluted in assay buffer supplemented with 5 mM probenicid (Sigma, Al-drich NV, Belgium) to give a final concentration of 2 μM. • c) 384-well plates • Black 384 well plate black/clear plates, PDL pre-coated (Corning, Incorporated, USA) • d) Calcium flux measurement • A Functional drug screening system (FDSS, Hamamatsu) was used to measure intracellular free-calcium flux signals. Method
Monolayers of hα7-wt nAChR-expressing cells were grown in multi-well plates, in particular black-sided, transparent bottomed 384 well plates coated with poly-D-lysine for 24 hours prior to loading with a fluorescent calcium indicator, in a particular embodiment loading with fluo-4AM for up to 120 minutes.
PAM activity was detected in real time by applying the compounds to be tested to the loaded cells along with a α7 nicotinic receptor agonist during constant monitoring of cellular fluorescence in a FDSS. Compounds giving peak fluorescent responses greater than the response due to agonist alone, were considered to be α7 nAChR PAM's. In a particular embodiment, the α7 nicotinic receptor agonist was choline, a more particular embodiment choline applied at a sub-maximal concentration of 100 μM. In a further setting of the present invention the compounds to be tested were applied prior to the α7 nicotinic receptor agonist, in a particular embodiment up to 10 minutes prior to the agonist.
A control response to choline was calculated on each plate from the difference in peak in fluorescence in wells receiving either choline or assay buffer alone. Compounds of the present invention were tested at a concentration range from 0.01 μM to 30 μM. Compounds were considered to have an interesting activity when they potentiated the choline signal at least with 500% when tested at a concentration of 30 μM (the efficacy of 100 μM choline was defined as 100% in the absence of a PAM). The compounds also have a potentiating effect on the response to choline when measured by whole-cell patch clamp electrophysiology in GH4Cl cells stably over-expressing the human wild-type α7 receptor.
In general terms: Calcium assays in cells follow changes in intracellular calcium, usually with a dye or a luminescent sensor.

Data set [2] has as its target T2, hα7-wt nAChR-expressing GH4Cl cells (Homo sapiens, UniProt P36544).
T2 construct: expressed in transfected cells
The experiment in a line: Patch-clamp current recording (whole-cell), potentiation of choline 1 mM response, PAM type. As to conditions: for EC50: according to Ex. D.2, "<5" = no top plateau reached at maximal concentration, read-out: Potency (pEC50) (converted); for Pam type: patch-clamp current recording, 1 mM choline. Also on record: key to Pam type: Type 0 compounds minimally enhance the effect size of the current elicited by 1 mM choline.; Type 1 compounds enhance the effect size of the current elicited by 1 mM choline but minimally alter the kinetics of the receptor.; Type 2 compounds enhance the effect size of the current elicited by 1 mM choline while reducing the rate and/or the extent of desensitization.; Type 3 compounds enhance the effect size of the current elicited by 1 mM choline. When tested at higher concentrations up to 10 μM they completely inhibit desensitization, in particular a 1 mM choline application of 250 milliseconds.; Type 4 compounds allow for an initial desensitization of the receptor followed by a re-opening of the receptor during agonist application. The data set is classed as cell-based. Summed up:
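Whole-cell voltage clamp at −70 mV of GH4Cl cells expressing human α7 nAChR, with PAM and 1 mM choline co-applied by rapid-switching (<100 ms) microfluidics. External solution HEPES-buffered, 1 mM Ca, pH 7.3; CsCl-based internal. Compounds classified into PAM types by effect on current amplitude and desensitization kinetics.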

Molecules are shown by their SMILES.

T1 sequence (P36544 23-502): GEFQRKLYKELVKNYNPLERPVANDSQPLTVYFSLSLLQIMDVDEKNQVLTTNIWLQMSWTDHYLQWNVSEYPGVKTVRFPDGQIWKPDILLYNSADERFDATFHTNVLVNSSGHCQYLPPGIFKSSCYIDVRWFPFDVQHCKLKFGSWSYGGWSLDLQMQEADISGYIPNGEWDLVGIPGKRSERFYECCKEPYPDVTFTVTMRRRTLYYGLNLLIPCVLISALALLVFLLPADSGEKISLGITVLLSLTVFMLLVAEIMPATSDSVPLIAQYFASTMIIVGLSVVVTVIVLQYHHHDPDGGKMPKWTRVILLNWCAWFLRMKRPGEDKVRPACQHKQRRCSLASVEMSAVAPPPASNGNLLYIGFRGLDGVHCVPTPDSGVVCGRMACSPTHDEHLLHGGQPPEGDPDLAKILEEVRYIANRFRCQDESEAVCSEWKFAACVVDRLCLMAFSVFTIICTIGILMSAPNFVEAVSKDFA
T2 sequence (P36544 23-502): as above

A word on the melting point: it is the temperature, or range, at which the solid turns liquid. In turn, `Cc1cc(-n2nc(Nc3cccc(Cl)c3F)nc2CC(=O)NC2CC2)c(C)cn1` [E157] returned a melting point of 192.6 °C. In data set [1], the Emax is 492%. Further, in data set [2], the EC50 is 3800 nM and the Pam type was 2.

On to `Cc1cc(-n2nc(Nc3cc(F)cc(C(F)(F)F)c3)nc2CC(=O)NC2CCC2)cc(C)n1` [E254], for which the melting point was determined as 291.8 °C. The Emax in data set [1] was 662%. Further, the EC50 in data set [2] was 75.9 nM.

The molecule `Cc1cc(-n2nc(Nc3ccc4c(c3)OC(F)(F)O4)nc2CCC(=O)N(C)C)cc(C)n1` [E235, 3-[(2,2-difluoro-1,3-benzodioxol-5-yl)amino]-1-(2,6-dimethyl-4-pyridinyl)-N,N-dimethyl-1H-1,2,4-triazole-5-propanamide] showed a melting point of 178 °C. In addition, the Emax in data set [1] came to 419%. Besides, the EC50 in data set [2] was 28.8 nM.

The molecule `Cc1cc(-n2nc(Nc3ccc(F)c(F)c3)nc2C[C@H](C)O)cc(C)n1` [E141] had a melting point of 225.7 °C. Besides, the Emax in data set [1] came out at 961%. In data set [2], the EC50 is 1380 nM and the Pam type was 2.

Consider `CNC(=O)Cc1nc(Nc2cc(F)cc(F)c2)nn1-c1cc(C)nc(C)c1` [E232], for which the melting point stood at 282.1 °C. In addition, the Emax in data set [1] came out at 289%. The EC50 in data set [2] was 871 nM.

`CCNC(=O)Cc1nc(Nc2ccc(F)c(Cl)c2)nn1-c1cc(C)nc(C)c1` [E250]: the melting point was 283.2 °C. Moreover, in data set [1], the Emax is 546%. Also, the EC50 in data set [2] was 105 nM.

In turn, `Cc1cc(-n2nc(Nc3ccc(F)c(F)c3F)nc2CC(=O)NC(C)C)cc(C)n1` [E213] gave a melting point of 252.1 °C. Also, the Emax in data set [1] was determined as 909%. Also, in data set [2], the EC50 is 468 nM and the Pam type came out at 2.

In turn, `C/C=C/c1nc(Nc2ccc(F)c(C(F)(F)F)c2)nn1-c1ccnc(C)c1` [E11, N-[4-Fluoro-3-(trifluoromethyl)phenyl]-1-(2-methyl-4-pyridinyl)-5-[(1E)-1-propenyl]-1H-1,2,4-triazol-3-amine] displayed a melting point of 226.3 °C. The Emax in data set [1] was 341%. In addition, the EC50 in data set [2] was 138 nM.

In the case of `Cc1nccc(-n2nc(Nc3cccc(Cl)c3F)nc2CC(=O)NC2CCC2)c1C` [E192], the melting point came out at 187.9 °C. For the same molecule, in data set [1], the Emax was 397%. Moreover, in data set [2], the EC50 was 1580 nM and the Pam type was determined as 1.

As to `CCNC(=O)Cc1nc(Nc2cc(Cl)cc(OC)c2)nn1-c1cc(C)nc(C)c1` [E219], the melting point worked out at 254 °C. For the same molecule, the Emax in data set [1] amounted to 702%. In addition, in data set [2], the EC50 was 269 nM and the Pam type is given as 4.

For the molecule `CNC(=O)Cc1nc(Nc2ccc(F)c(C(F)(F)F)c2)nn1-c1cc(C)nc(C)c1` [E223], the melting point was found to be 264.2 °C. For the same molecule, the Emax in data set [1] is 603%. In addition, the EC50 in data set [2] is 316 nM.

As to `C[C@H](O)Cc1nc(Nc2ccc(F)c(F)c2)nn1-c1ccc(F)cc1` [E19], the melting point was determined as 178 °C. In addition, in data set [1], the Emax was found to be 445%. In addition, the EC50 in data set [2] was 3020 nM.

In the case of `Cc1cc(-n2nc(Nc3cc(F)cc(F)c3)nc2CC(=O)NC2CCC2)cc(C)n1` [E239], the melting point is 286.7 °C. In data set [1], the Emax turned out to be 372%. Also, the EC50 in data set [2] was 126 nM.

For the molecule `Cc1cc(-n2nc(Nc3cc(F)cc(C(F)(F)F)c3)nc2CC(=O)NC2CC2)cc(C)n1` [E253], the melting point was determined as 286.3 °C. Moreover, in data set [1], the Emax amounted to 950%. For the same molecule, the EC50 in data set [2] is 91.2 nM.

`Cc1cc(-n2nc(Nc3ccc(F)c(Cl)c3)nc2CC(=O)NC2CC2)cc(C)n1` [E230] returned a melting point of 287.4 °C. Moreover, the Emax in data set [1] came out at 417%. Moreover, the EC50 in data set [2] was 141 nM.

Regarding `Cc1cc(-n2nc(Nc3ccc(F)c(F)c3)nc2C[C@@H](C)O)ccn1` [E198], the melting point turned out to be 210.3 °C. Further, in data set [1], the Emax was determined as 808%. Further, in data set [2], the EC50 is 1860 nM and the Pam type is reported as 2.

For `COc1cc(Nc2nc(CC(=O)NC3CCC3)n(-c3cc(C)nc(C)c3)n2)cc(C(F)(F)F)c1` [E244], the melting point was 278.4 °C. In addition, the Emax in data set [1] was found to be 701%. In data set [2], the EC50 is 31.6 nM.

`CCNC(=O)Cc1nc(Nc2cc(F)cc(C(F)(F)F)c2)nn1-c1cc(C)nc(C)c1` [E252] gave a melting point of 284.5 °C. The Emax in data set [1] was 930%. In addition, in data set [2], the EC50 is 195 nM.

In turn, `COc1cc(Cl)cc(Nc2nc(CC(=O)NC3CC3)n(-c3cc(C)nc(C)c3)n2)c1` [E221] came in with a melting point of 264.4 °C. In addition, in data set [1], the Emax came to 620%. Moreover, in data set [2], the EC50 is 209 nM and the Pam type was determined as 4.

`COc1ccc(Nc2nc(CC(=O)NC3CC3)n(-c3cc(C)nc(C)c3)n2)cc1C(F)(F)F` [E229] gave a melting point of 265.7 °C. Besides, the Emax in data set [1] came out at 680%. In addition, in data set [2], the EC50 was 135 nM and the Pam type worked out at 4.

Molecule `Cc1cc(-n2nc(Nc3cc(F)cc(Cl)c3)nc2CC(=O)NC2CCC2)cc(C)n1` [E248] came in with a melting point of 287 °C. Besides, the Emax in data set [1] came to 421%. The EC50 in data set [2] was 107 nM.

In turn, `Cc1cc(-n2nc(Nc3ccc(F)c(F)c3)nc2CC(=O)NCC2CC2)c(C)cn1` [E166] showed a melting point of 211.2 °C. Besides, in data set [1], the Emax stood at 589%. Besides, in data set [2], the EC50 is 2340 nM and the Pam type came to 1.

Turning to `CNC(=O)Cc1nc(Nc2cc(Cl)cc(OC)c2)nn1-c1cc(C)nc(C)c1` [E216], the melting point is 246.2 °C. The Emax in data set [1] turned out to be 576%. In addition, in data set [2], the EC50 is 603 nM and the Pam type is 4.

Molecule `Cc1cc(-n2nc(Nc3cc(F)cc(F)c3)nc2CC(=O)NC2CC2)cc(C)n1` [E238] returned a melting point of 289.2 °C. For the same molecule, in data set [1], the Emax turned out to be 382%. For the same molecule, the EC50 in data set [2] is 575 nM.

The molecule `CC[C@@H](O)Cc1nc(Nc2cc(OC)cc(C(F)(F)F)c2)nn1-c1cc(C)nc(C)c1` [E128] gave a melting point of 138.8 °C. The Emax in data set [1] came to 994%. Moreover, in data set [2], the EC50 is 126 nM and the Pam type is reported as 4.

As to `COc1ccc(Nc2nc(CC(=O)NC3CCC3)n(-c3cc(C)nc(C)c3)n2)cc1C(F)(F)F` [E236], the melting point stood at 268.7 °C. In addition, the Emax in data set [1] amounted to 391%. In addition, in data set [2], the EC50 was 120 nM.

In turn, `COc1cc(Cl)cc(Nc2nc(CC(=O)NC3CCC3)n(-c3cc(C)nc(C)c3)n2)c1` [E222] came in with a melting point of 257.8 °C. Moreover, the Emax in data set [1] turned out to be 440%. In data set [2], the EC50 is 83.2 nM and the Pam type amounted to 1.

As to `Cc1cc(-n2nc(Nc3ccc(F)c(F)c3)nc2CC(=O)NC2CCC2)c(C)cn1` [E162], the melting point is 244.1 °C. Moreover, in data set [1], the Emax was determined as 623%. Further, in data set [2], the EC50 was 2880 nM and the Pam type is 1.

`CNC(=O)Cc1nc(Nc2cc(F)cc(C(F)(F)F)c2)nn1-c1cc(C)nc(C)c1` [E251] had a melting point of 286.2 °C. The Emax in data set [1] came to 658%. Besides, the EC50 in data set [2] is 263 nM.

Turning to `Cc1cc(-n2nc(Nc3cc(F)cc(Cl)c3)nc2CC(=O)NC2CC2)cc(C)n1` [E247], the melting point came to 289.3 °C. Moreover, in data set [1], the Emax amounted to 663%. Moreover, the EC50 in data set [2] was 214 nM.

`Cc1cc(-n2nc(Nc3ccc(F)c(C(F)(F)F)c3)nc2CC(=O)NC2CCC2)cc(C)n1` [E225]: the melting point is 248.8 °C. Moreover, the Emax in data set [1] came out at 660%. In data set [2], the EC50 is 100 nM and the Pam type was 0.
